Source: patent US7005437B2, “Substituted aryl and heteroaryl derivatives, the preparation thereof and the use therof as pharmaceutical compositions” (Boehringer Ingelheim Pharma KG, priority 2001, dated 2006)
Where a name gives a salt, the structure may show the parent alone.

Target: T1, human factor Xa (Homo sapiens, UniProt P00742)
T1 construct: released from the colourless chromogenic substrate by human factor Xa; purchased Roche
Test: Factor Xa inhibition, enzyme-kinetic measurement with chromogenic substrate
Assay type: biochemical
Conditions: chromogenic substrate Chromozym X, pNA release at 405 nm, pH 8.0, 37° C.
Description: The compounds of Examples 1 to 45 of the present application were investigated for their effect on the inhibition of factor Xa as follows: Method: Enzyme-kinetic measurement with chromogenic substrate. The quantity of p-nitroaniline (pNA) released from the colourless chromogenic substrate by human factor Xa is determined photometrically at 405 nm. It is proportional to the activity of the enzyme used. The inhibition of the enzyme activity by the test substance (in relation to the solvent control) is determined at various concentrations of test substance and from this the IC50 is calculated, as the concentration which inhibits the factor Xa used by 50%.
Tris(hydroxymethyl)-aminomethane buffer (100 mMol) of and sodium chloride (150 mMol), pH 8.0
Factor Xa (Roche), spec. activity: 10 U/0.5 ml, final concentration: 0.175 U/ml for each reaction mixture
Substrate Chromozym X (Roche), final concentration: 200 μMol/l for each reaction mixture
10 μl of a 23.5-times concentrated starting solution of the test substance or solvent (control), 175 μl of tris(hydroxymethyl)-aminomethane buffer and 25 μl of a 1.65 U/ml Factor Xa working solution are incubated for 10 minutes at 37° C. After the addition of 25 μl of Chromozym X working solution ([…]) the sample is measured in a photometer (SpectraMax 250) at 405 nm for 150 seconds at 37° C.
1. […]

T1 sequence (P00742 235-488 limits assumed): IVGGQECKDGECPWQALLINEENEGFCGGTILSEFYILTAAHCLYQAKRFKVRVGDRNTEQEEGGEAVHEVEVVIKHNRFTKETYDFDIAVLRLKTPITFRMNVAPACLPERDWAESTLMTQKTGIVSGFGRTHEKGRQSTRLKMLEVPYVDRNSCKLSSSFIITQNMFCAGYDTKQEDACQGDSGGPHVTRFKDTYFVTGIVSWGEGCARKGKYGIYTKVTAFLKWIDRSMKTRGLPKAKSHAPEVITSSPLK
T1 sequence (P00742 41-179 partner limits assumed): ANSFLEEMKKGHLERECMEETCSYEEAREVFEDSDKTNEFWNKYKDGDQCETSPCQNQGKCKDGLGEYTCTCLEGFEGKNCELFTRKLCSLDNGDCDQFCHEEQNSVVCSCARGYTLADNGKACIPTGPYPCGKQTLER

IC50: 4 nM
SMILES: Cc1cc(C#CCN(Cc2ccccc2)c2cccc(C(=N)N)c2)ccc1C(=O)N1CC=CC1 [Example 37, 3-{N-benzyl-3-[3-methyl-4-(2,5-dihydropyrrol-1-yl-carbonyl)-phenyl]-propargylamino}-benzamidine-hydrochloride]
